Experimental data reported in patent US8097656B2, “Nitrogenated trans-stilbene analogs, method for the obtention and medical applications thereof” (Dominion Pharmakine S.L, priority 2005, dated 2012).

Tests used:
MB16-Luc cells = assay: Hepatic retention of luciferase-transfected MB16 cells (MB16-Luc); type: in vivo, C57BL/6J mice; conditions: 2 doses of 1 mg/kg/day nasogastrically; 18 h after intrasplenic injection; control 1.80 ± 0.23
Excerpt: Test of hepatic retention of luciferase-transfected MB16 cells (MB16-Luc) (see Table 1). B16M Cells were stably transfected by lipofection as described previously (Rubio N, Martinez-Villacampa M, Blanco J. Traffic to lymph nodes of PC-3 prostate tumor cells in nude mice visualized using the luciferase gene as a tumor cell marker. Lab Invest 1998; 78:1315-1325), using plasmid pRc/cytomegalovirus-luciferase, a construct containing the Photinus pyralis luciferase gene coding sequence under transcriptional control of the cytomegalovirus promoter and the neomycin resistance gene to the G418 antibiotic (Sigma Chemicals Co.). A total of 300,000 viable B16M-Luc cells were intrasplenically injected into C57BL/6J mice (10 mice per group) which had previously been nasogastrically administered 2 doses of 1 mg/kg/day of compound to be tested. One group of mice received resveratrol, the other group of mice received azaresveratrol. […] Production of light was measured using a luminometer designed to read individual samples tubes (bioorbit, LKB Wallac; Turku, Finland) after the addition of 100 μl of luciferase assay reagent to 20 μl of each liver homogenate. […] Linearity and sensitivity of light detection in liver homogenates and influence of hepatic microenvironment on luciferase activity of B16M-Luc were also evaluated as described previously (Rubio et al, 1998).

MA375 cells = assay: In vitro proliferation of MA375 cells in response to human HSC soluble factors; type: cell-based; conditions: for Increase in proliferation of A375 cells by MC-CEH (in words): 2.5 μM for 30 minutes before MC-CEH, 48 hours; for Proliferation of MA375 cells in response to human HSC soluble factors (No. cells per well): 2.5 μM, 30 min before HSC-conditioned media, 48 h, control 9000 ± 60, treatment alone 17500 ± 50
Procedure: Culture of B16 (MB16) and A375 (MA375) melanoma cells. The MB 16 (B16F10 subline) murine tumor cells were cultured at 37° C., with 5% CO2 atmosphere in Dulbecco's modified Eagle's medium (DMEM)-HCO3 penicillin (100 U/ml), streptomycin (100 μg/ml), supplemented with 5% fetal bovine serum and adjusted to pH 7.4. The cells were maintained and subcultured according to the method described by Vidal-Vanaclocha et al. (1994) [Vidal-Vanaclocha, F., Amézaga, C., Asumendi, A., Kaplanski, G. & Dinarello, C. A. Interleukin-1 receptor blockade reduces the number and size of murine B16 melanoma hepatic metastases. Cancer Research, 1994, 54, 2667-2672]. The conditioned media were obtained from subconfluyent cultures maintained in absence of FBS for 24 hours.
In vitro Melanoma cell proliferation test. The MB16 or MA375 cells are seeded (2500 cells/well/200 μl) in DMEM medium (Dulbecco's modified Eagle's medium) with 10% fetal bovine serum (FBS). Once adhered, they were washed to remove the FBS and fresh medium was added in the presence or absence of 2.5 μM of the compounds to be tested. In the experiments with MA375, the compound azaresveratrol (see Table 4) was used, and in the experiments with MB16 cells, the compounds azaresveratrol, JE1:2, JE2:1 or JE2:2 (see FIG. 3) were used. Thirty (30) minutes later, 10 ng/ml of IL-18 or HSC-conditioned media (murines in the case of B16 and human ones in the case of A375) were added to some wells, and the plates were incubated for 48 hours at 37° C. with 5% CO2 Upon completion of the incubation period, the cells were fixed with […] for 1 hours, were washed and were allowed to dry in the incubator at 50° C. for 30 minutes. In following, 100 μl/well of sulforhodamine 101 (0.4% p/v) was added and they were incubated at room temperature in the dark for 30 minutes. After washing, 200 μl/well of Tris base 10 mM pH 10.5 was added and the fluorescence was measured by means of a 530 nm, 620 nm emission excitation filter plate fluorescence reader. The number of cells was calculated by extrapolating said fluorescence data on a standard straight line previously obtained based on the fluorescence emitted in an increasing number of cells.

human HSC = assay: Proliferation of human HSCs treated with MC-MA375; type: cell-based; conditions: for Increase in HSC proliferation in response to MC-A375 (in words): 12.5 μM 30 min prior to MC-A375; for Proliferation of human HSC's treated with MC-MA375 (No. cells per well): 12.5 μM, 30 min before MC-MA375, 48 h, control 2550 ± 22, treatment alone 4400 ± 30
Procedure: isolation of primary human cultures of hepatic sinusoidal endothelial (HSE) hepatic stellate cells (HSCs). The primary cultures of human HSE and HSC cells were obtained by non-tumoral hepatic tissue serial profusion with collagenase and pronase solutions, followed by Nycodenz gradient and seeded on 24-well plates (0.5×10^4 cells/cm^2) in DMEM. supplemented with 10% FBS.
HSC proliferation test. Primary cultured human HSC cultures were seeded (2500 cells/well/200 μl) in DMEM with 10% FBS. Once adhered, they were washed to remove the FBS and were incubated with fresh medium in the presence or absence of 12.5 μM of the azaresveratrol compound (see Table 3). Thirty (30) minutes later, conditioned media obtained from MA375 cells were added to some wells, and the plates were incubated for 48 hours in humid incubator at 37° C. with 5% CO2. Upon completion of the incubation time, the cells were fixed and were processed for counting just as previously described hereinabove.

SMILES	Hepatic retention of MB16 Luc cells (No. cells × 10^6) (MB16-Luc cells)	Increase in proliferation of A375 cells by MC-CEH (in words) (MA375 cells)	Proliferation of MA375 cells in response to human HSC soluble factors (No. cells per well) (MA375 cells)	Increase in HSC proliferation in response to MC-A375 (in words) (human HSC)	Proliferation of human HSC's treated with MC-MA375 (No. cells per well) (human HSC)
Oc1ccc(/N=C/c2cc(O)cc(O)c2)cc1 [azaresveratrol, 5-((E)-(4-Hydroxyphenylimino)methyl)benzene-1,3-diol]	0.98 ± 0.24 No. cells × 10^6	prevented	9250 ± 65 No. cells per well	abrogated	2600 ± 60 No. cells per well
Oc1ccc(C=Cc2cc(O)cc(O)c2)cc1 [resveratrol, reference compound]	1.05 ± 0.3 No. cells × 10^6	prevented	9050 ± 100 No. cells per well	abrogated	2250 ± 100 No. cells per well
